The values below come from patent publication US20170281611A1, “QUINOLINES AND THEIR USE FOR TREATING ENDOPLASMIC RETICULUM STRESS-CAUSED DISEASES” (EIGER BIOPHARMACEUTICALS, INC., priority 2014, published 2017).

Each structure is given as a SMILES string.

Data set [1] can be described thus: Pharmacokinetics of compound A12 in Sprague Dawley rats. It is filed as in vivo, rat. The settings on record: oral, 2 mg/kg P.O. As for the experimental part:
Pharmacokinetics of a test compound, compound A12, was assessed in Sprague Dawley rats. The compound was formulated at 1 mg/mL in DMSO/Tween 80/water (10/10/80, vol/vol/vol) and dosed at 1 mg/kg intravenous (i.v.) or 2 mg/kg by oral gavage (P.O.) in triplicate. Blood was drawn at 5 min, 15 min, 30 min, 1 hr, 2 hrs, 4 hrs, 6 hrs, and 8 hrs into EDTA containing tubes and plasma was harvested by centrifugation. Plasma (25 μL) was treated with acetonitrile (125 μL) containing an internal standard. The sample was then centrifuged for 5 min at 4,000 rpm in a tabletop centrifuge and the filtrate was collected. The filtrate was injected onto a Thermo Betasil C18 HPLC column 5μ (50×2.1 mm). Mobile Phase A was water with 0.1% formic acid. Mobile Phase B was acetonitrile with 0.1% formic acid. Separation was achieved using a gradient of 90% A/10% B to 5% A/95% B over 7 min. An API Sciex 4000 equipped with a turbo ion spray source was used for all analytical measurements. A positive ion MRM method was developed. Peak areas of the product ion were measured against the peak areas of the internal standard. Data was fit using WinNonLin (Pharsight Corporation, Mountain View, Calif.).

The subject of data set [2] is G6PAse, PEPCK, SCD1, DGAT2, FASn, SREBP1c, PPARα, PGC1α. Briefly: Liver expression of gluconeogenesis and lipogenesis genes (real-time PCR). It is filed as in vivo, mouse. The settings on record: liver of ob/ob mice. The protocol: The expression of key genes involved in gluconeogenesis and lipogenesis was measured. RNA was isolated from liver samples of the ob/ob mice and mRNA expression of the indicated genes was quantified by Real-time PCR using iTaq Fast SYBR Green Supermix with ROX (Bio-Rad) in a 7500 Real-Time PCR systems (Applied Biosystems) using mouse specific primers. Gene expression is normalized to 18s. RNA was isolated using Trizol (Invitrogen). cDNA was generated using High Capacity cDNA Reverse Transcription kit (Applied Biosystems). Real-time PCR was performed with iTaq Fast SYBR Green Supermix with ROX (Bio-Rad) in 7500 Real-Time PCR systems (Applied Biosystems) using mouse specific primers. Gene expression was normalized to 18s. Isolated liver tissue was homogenized in RIPA buffer containing protease inhibitors and phosphatase inhibitors (Roche). Protein samples were matched for their protein concentrations and 30 micrograms of each sample were applied to SDS-PASE and transferred onto nitrocellulose membrane. Membranes were then incubated with the corresponding phosphor or total primary antibodies specific for the desired proteins followed by incubation with appropriate secondary antibodies conjugated to horseradish peroxidase (Pierce) and signal intensities were visualized by Chemiluminescence (Pierce). Films from at least four independent experiments were scanned and densities of the immunoreactive bands were evaluated using NIH Image software. GAPDH (Santa Cruz Biotechnology) was used as a loading control.
(In general: Quantitative PCR measures a nucleic acid by following its amplification.)

The subject of a further data set is APP-PS1 mice. Briefly: Alzheimer's disease model, Aβ deposition (Thioflavin S staining). It is filed as in vivo, mouse. Conditions: 10 mg/kg ip for 4 weeks, vs saline. As for the experimental part: PS1/APP mice (PS1M146V and APPSWE) (Howlett et al., Brain Res. 2004, 1017, 130-136) were used. Age-matched NTg controls were on the same background strain (C57bl6/J9).
Mice were transcardially perfused with ice-cold PBS (3 mL) followed by 4% paraformaldehyde (5 mL). Brains were extracted and fixed overnight in 30% sucrose-cryoprotectant solution. Coronal hippocampal sections 40 μm thick were cut on a cryostat and collected in TBS (0.1 M Tris, 0.9% saline, pH 7.4).
Free-floating hippocampal sections were washed with TBS (4×3 min). The sections were soaked in 0.5% thioflavin S (in 50/50 ethyl alcohol/distilled water, Sigma-Aldrich) for 10 min, followed by 2×3 min washes with 50% ethyl alcohol. Sections were washed again with TBS (2×3 min), mounted with minimal drying, and coverslipped with anti-fade mounting medium PVA-DABCO for microscopy.
Confocal images of immunolabeled tissue were obtained using 4× and 10× objective lenses on the Olympus Fluoview confocal microscope. Density of amyloid plaques was quantified by averaging the percent area staining positive (thresholded above background staining, as determined by software parameters and experimenter confirmation) within the hippocampus and cortex from 3-5 sections from each experimental animal using MetaMorph Software (Molecular Devices). […]

Data set [3] addresses human nerepinephrine (NET) transporter (Homo sapiens, UniProt P23975). Nature of the data set: Selectivity panel of 164 targets: NET. The settings on record: 10 μM in duplicate; one of only 4 hits among 164 targets. The text has this:
The methods used here for each target were adapted from the scientific literature to maximize reliability and reproducibility.

Data set [4] has as its system ob/ob mice. Nature of the data set: Insulin tolerance test (ITT). It is filed as in vivo, mouse. Conditions: day 10 post-injection, compared with vehicle. The protocol: (§1) Both glucose (GTT) and insulin (ITT) tolerance tests were performed following a 10-hr fast and an additional 2-hr after CDNs injection with baseline blood glucose measurement taken before the beginning of the test. For the GTT, D-glucose dissolved in 0.9% NaCl was delivered intraperitoneally at a dose of 1 g/kg. The blood glucose level was measured 0, 15, 30, 60, 90, and 120 min after glucose administration. For the ITT, insulin was administered intraperitoneally at a dose of 1 IU/kg. The blood glucose level was measured 0, 15, 30, 60, 90, and 120 min after insulin administration. Glucose levels were measured in blood samples drawn from the tail vein using OneTouch Ultra 2 Meter (LifeScan, Inc.).

Data set [5] has as its system HeLa cells overexpressing BI-1. Briefly: Effect on [Ca2+]ER, ER cameleon in HeLa cells overexpressing BI-1. Format: cell-based. The settings on record: HeLa cells overexpressing BI-1, treated 24 hrs. The protocol: To directly measure ER Ca^2+ content, a genetically encoded Ca^2+ indicator, ER cameleon, was used. HeLa cells were transfected with ER-cameleon encoding plasmid for 2 days before analysis. Cells were treated with a test compound for 24 hrs and imaged in Ca^2+-free HBSS upon addition of thapsigargin to deplete ER stores. Emission ratio imaging of the ER cameleon was accomplished using a 430/24 excitation filter, 450-nm dichroic mirror, and two emission filters (475/40 for CFP and 535/25 for YFP). The fluorescence ratio of YFP/CFP is a measure of relative ER Ca^2+ levels.

Data set [6] concerns ob/ob mice. Nature of the data set: Glucose tolerance test (GTT). Format: in vivo, mouse. Conditions: day 7 post-injection, compared with vehicle. The protocol:
as §1

In data set [7] the test system is ob/ob mice. Briefly: Effect of a SERCA agonist on the level of blood glucose. Format: in vivo, mouse. The settings on record: 10 or 50 mg/kg i.p. once a day for 5 days. As for the experimental part: Fasting glucose was measured at baseline and 10 hours after the administration of the test compound. Glucose levels were measured in blood samples drawn from the tail vein using the OneTouch Ultra 2 Meter (LifeScan, Inc.).

Sequence of human nerepinephrine (NET) transporter (P23975 whole entry): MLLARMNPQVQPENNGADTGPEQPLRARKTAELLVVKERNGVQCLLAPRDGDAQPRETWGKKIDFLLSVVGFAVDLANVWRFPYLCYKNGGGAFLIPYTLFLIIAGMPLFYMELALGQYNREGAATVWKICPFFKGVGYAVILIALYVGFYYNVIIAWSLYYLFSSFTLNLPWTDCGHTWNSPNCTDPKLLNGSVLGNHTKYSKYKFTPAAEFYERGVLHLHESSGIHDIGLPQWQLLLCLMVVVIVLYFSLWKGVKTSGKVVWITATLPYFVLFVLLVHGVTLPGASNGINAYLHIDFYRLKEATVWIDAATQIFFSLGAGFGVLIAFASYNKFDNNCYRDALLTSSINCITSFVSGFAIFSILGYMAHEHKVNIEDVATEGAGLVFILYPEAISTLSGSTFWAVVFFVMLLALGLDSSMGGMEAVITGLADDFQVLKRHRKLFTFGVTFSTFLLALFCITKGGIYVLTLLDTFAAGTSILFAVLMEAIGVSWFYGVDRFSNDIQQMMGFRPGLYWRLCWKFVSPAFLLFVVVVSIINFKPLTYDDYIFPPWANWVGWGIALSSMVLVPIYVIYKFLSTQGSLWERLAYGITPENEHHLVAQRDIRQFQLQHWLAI

`Cc1ccc2cccc(NC(=O)c3ccc(OC(C)C)cc3)c2n1` [Compound A12, 4-Isopropoxy-N-(2-methylquinolin-8-yl)benzamide] registered a T112 in data set [1] of 1.17 h. Further, in data set [2], the “expression of PPARα and its target PGC1α” value is on record as “increased”; the “mRNA expression of G6PAse and PEPCK” value is given as “significantly reduced”; the “mRNA expression of lipogenic genes (SCD1, DGAT2, FASn, SREBP1c)” value was “significantly reduced”. Further, in the data set on APP-PS1 mice, the “amyloid plaques stained with Thioflavin S” value is given as “reduced”. For the same compound, the “response against human nerepinephrine (NET) transporter” value in data set [3] is “significant responses”. Moreover, in the data set on ob/ob mice [4], the “insulin-stimulated glucose deposal (ITT)” value is listed as “strongly enhanced”. For the same compound, the “[Ca2+]ER” value in data set [5] was “significantly restored”. Moreover, the “hyperglycemic response to the i.p. glucose challenge (GTT)” value in the data set with ob/ob mice [6] was “significantly reduced”. Also, in the data set with ob/ob mice [7], the fasting blood glucose result is given as “significantly lowered blood glucose as early as day 2” and the “maintenance of lower glucose level after last injection” value is on record as “maintained a lower glucose level, to a level identical to lean mice, for over a week after the last injection”.
